Legend:
SF-295 = assay: Cell line drug profiling, CellTiter Glo; type: cell-based, human; details: Homo sapiens, SF-295, 72 h
Method: (§1) We tested the cytotoxicity of representative compounds from the seven EXO1i scaffolds against a subset of the NCI-60 cell line panel along with three additional pancreatic cell lines (FG, AsPC1, and CaPan2). In general, cells were seeded in 384-well tissue culture-treated plates overnight and treated with various concentrations of each hit compound (a serial 3-fold dilution from 50 μM for all tested hits). Each concentration was performed in duplicate. Cell viability was then measured by CellTiter Glo (Promega) after 72 h of treatment.

MDA-MB-231 cells = assay: Gel-based phospho-RPA end resection assay; type: cell-based, human; details: inhibitor overnight then 2 μM CPT 2 h, C5 10 μM
Method: The levels of RPA32 and phosphorylated RPA32 (S33) were analyzed by Western blotting using antibodies against RPA32 and phosphorylated RPA32 (S33). The total level of tubulin was used as a control. (b) Ratio of P-RPA:RPA levels calculated from panel a. […] U2OS cells carrying a GFP reporter for HR were infected with adenovirus expressing the I-SceI restriction enzyme. […] U2OS cells carrying a GFP reporter for HR were infected with adenovirus expressing the I-SceI restriction enzyme. […] For panels c and d, after 48 h, the cells were harvested, and the GFP-positive cells were analyzed by flow cytometry. Values are the mean ± S.D. of three independent experiments.
The treated cells were then lysed in the SDS-PAGE sample buffer, and the lysate was separated by SDS-PAGE prior to immobilization on a nitrocellulose membrane and Western blotting. Antibodies against unphosphorylated RPA, S33-P-RPA2, and tubulin were subsequently assayed according to the manufacturer’s recommendations. The ratio of P-RPA/RPA levels were quantified via ImageJ.

T-47D = assay: Cell line drug profiling, CellTiter Glo; type: cell-based; details: Homo sapiens, T47D, Breast, 72 h
Method: as §1

PC3 = assay: Cell line drug profiling, CellTiter Glo; type: cell-based; details: Homo sapiens, PC-3; PC3, Prostate, 72 h
Method: as §1

OVCAR-8 = assay: Cell line drug profiling, CellTiter Glo; type: cell-based; details: Homo sapiens; OVCAR-8, Ovarian, 72 h
Method: as §1

IGR-OV1 = assay: Cell line drug profiling, CellTiter Glo; type: cell-based; details: Homo sapiens, IGROV-1; IGR-OV1, Ovarian, 72 h
Method: as §1

H23 = assay: Cell line drug profiling, CellTiter Glo; type: cell-based; details: Homo sapiens, NCI-H23; H23, Lung, 72 h
Method: as §1

SKOV-3 = assay: Cell line drug profiling, CellTiter Glo; type: cell-based; details: Homo sapiens, SK-OV-3; SKOV-3, Ovarian, 72 h
Method: as §1

UACC-257 = assay: Cell line drug profiling, CellTiter Glo; type: cell-based; details: Homo sapiens; UACC-257, Melanoma, 72 h
Method: as §1

SNB-19 = assay: Cell line drug profiling, CellTiter Glo; type: cell-based; details: Homo sapiens; SNB-19, Central Nervous System, 72 h
Method: as §1

DU145 (B3) = assay: Cell line drug profiling, CellTiter Glo; type: cell-based; details: Homo sapiens, DU-145, Prostate, 72 h
Method: as §1

OVCAR-4 = assay: Cell line drug profiling, CellTiter Glo; type: cell-based; details: Homo sapiens; OVCAR-4, Ovarian, 72 h
Method: as §1

OVCAR-5 = assay: Cell line drug profiling, CellTiter Glo; type: cell-based; details: Homo sapiens; OVCAR-5, Ovarian, 72 h
Method: as §1

U251 = assay: Cell line drug profiling, CellTiter Glo; type: cell-based; details: Homo sapiens, U-251; U251, Central Nervous System, 72 h
Method: as §1

NCI/ADR-RES = assay: Cell line drug profiling, CellTiter Glo; type: cell-based; details: Homo sapiens, Ovarian, 72 h
Method: as §1

DU145 = assay: Cell line drug profiling, CellTiter Glo; type: cell-based; details: Homo sapiens, DU-145; DU145, Prostate, 72 h
Method: as §1

[1] = tested on: MDA-MB-436 (BRCA1+) tumors; assay: In vivo tumor growth assay, xenograft; design: species or system mouse; details: p = 0.64
Method: (§2) The tumor growth rate of human breast cancer cells with or without treatment with EXO1i was evaluated by using a xenograft breast cancer mouse model. […] The tumor volume in each mouse was measured twice a week and calculated using the formula (length × width × width)/2 (mm^3). When the tumors reached a volume of 1000 mm^3, the mice were euthanized. Animal studies were conducted in accordance with an approved protocol adhering to the IACUC policies and procedures of the City of Hope.

[2] = tested on: MDA-MB-436 (BRCA1−) tumors; assay: In vivo tumor growth assay, xenograft; design: species or system mouse; details: p = 0.018
Method: as §2

[3] = 8.5 mg/kg daily intraperitoneal

## COC(=O)c1nc(-c2ccc(OC)cc2)nc(O)c1O [C200]
SF-295
  IC50: > 50 µM
MDA-MB-231 cells
  CPT-induced P-RPA levels (DNA end resection): significantly reduced
T-47D
  IC50: > 50 µM
PC3
  IC50: > 50 µM
OVCAR-8
  IC50: > 50 µM
IGR-OV1
  IC50: > 50 µM
H23
  IC50: > 50 µM
SKOV-3
  IC50: > 50 µM
UACC-257
  IC50: > 50 µM
SNB-19
  IC50: > 50 µM
DU145 (B3)
  IC50: > 50 µM
OVCAR-4
  IC50: > 50 µM
OVCAR-5
  IC50: > 50 µM
U251
  IC50: > 50 µM
NCI/ADR-RES
  IC50: > 50 µM
DU145
  IC50: 49.4 µM

## Cc1cccc(N2CCN(c3ccc(NS(=O)(=O)c4ccccc4)c(C(=O)O)c3)CC2)c1C [F684]
[1]; 8.5 mg/kg body weight/day intraperitoneal, NSG mice, vehicle 16.6
  average growth rate of BRCA1+ tumors: 15.1 %/day
[1]; [3]
  tumor volumes compared with vehicle, BRCA1+ tumors: no effect
[2]; 8.5 mg/kg body weight/day intraperitoneal, NSG mice, vehicle […]
  average growth rate of BRCA1– tumors: 11.3 %/day
[2]; [3]
  tumor volumes compared with vehicle, BRCA1- mouse models: significantly reduced tumor volumes
MDA-MB-231 cells
  CPT-induced P-RPA levels (DNA end resection): significantly reduced

From article PMC12186255, “Discovery and Characterization of Small Molecule Inhibitors Targeting Exonuclease 1 for Homologous Recombination-Deficient Cancer Therapy” (ACS Chemical Biology, 2025)
